Laboratory results as given in ChEMBL document CHEMBL4507293 (2021).

How the values were obtained:
[1] = molecular target: T1, Alpha-2B adrenergic receptor (Homo sapiens) (UniProt P18089); details: Compound concentration 10.0 uM
T1 sequence (whole entry): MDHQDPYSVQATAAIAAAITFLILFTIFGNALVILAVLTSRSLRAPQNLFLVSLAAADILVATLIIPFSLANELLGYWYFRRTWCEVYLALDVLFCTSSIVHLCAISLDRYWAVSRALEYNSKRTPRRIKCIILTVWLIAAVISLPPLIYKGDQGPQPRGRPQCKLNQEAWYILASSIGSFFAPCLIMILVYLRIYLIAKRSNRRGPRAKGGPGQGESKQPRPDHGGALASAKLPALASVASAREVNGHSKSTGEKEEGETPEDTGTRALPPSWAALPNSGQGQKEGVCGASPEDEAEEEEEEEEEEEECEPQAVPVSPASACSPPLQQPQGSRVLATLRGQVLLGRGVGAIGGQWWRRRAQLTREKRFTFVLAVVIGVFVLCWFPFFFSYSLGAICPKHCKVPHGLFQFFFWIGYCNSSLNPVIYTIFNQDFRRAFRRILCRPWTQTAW

Bos taurus = organism: Bos taurus; test: Protein Serine/Threonine Kinase, PKA, Non-Selective Eurofins-Panlabs enzyme assay; type: protein-complex assay; set-up: substrate with concentration 370 µg/mL Histone Type III-S, incubation time 15 min, incubation temperature 25 °C; details: Compound concentration 10.0 uM
[2] = molecular target: 5-hydroxytryptamine receptor 7 (Homo sapiens, UniProt P34969); test: GPCRScan assay: inhibition of 5-HT7A; set-up: radioligand conc. used [nm] 5.0 – 6.0, parental cells Stable HEK
Sequence of 5-hydroxytryptamine receptor 7 (P34969 whole entry): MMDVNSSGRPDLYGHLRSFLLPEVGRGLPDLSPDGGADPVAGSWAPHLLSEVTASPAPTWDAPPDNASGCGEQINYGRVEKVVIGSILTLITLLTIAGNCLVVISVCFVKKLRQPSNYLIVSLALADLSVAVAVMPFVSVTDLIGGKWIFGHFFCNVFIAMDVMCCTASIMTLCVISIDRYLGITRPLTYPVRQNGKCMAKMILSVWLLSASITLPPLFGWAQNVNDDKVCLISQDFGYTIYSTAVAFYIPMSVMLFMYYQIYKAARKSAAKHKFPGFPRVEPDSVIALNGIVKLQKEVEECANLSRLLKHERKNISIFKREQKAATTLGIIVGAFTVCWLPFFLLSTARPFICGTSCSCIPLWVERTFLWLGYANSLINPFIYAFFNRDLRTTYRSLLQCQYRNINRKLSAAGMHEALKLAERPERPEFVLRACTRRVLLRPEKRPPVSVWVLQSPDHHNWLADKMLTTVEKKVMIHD

Row | Structure (SMILES) | inhibition [1] | inhibition (Bos taurus) | Ki [2]
1 | COCCOc1nc(-c2ccc(Cl)nc2)nc2c1CN(C(=O)c1ncn3ccccc13)CC2 [THPP-1] | 1% | -7% | 
2 | CC(C)CC(=O)N1CCc2nc(-c3ccc(Br)cc3)nc(N(C)Cc3ccccc3)c2C1 [THPP-1-NC] |  |  | 578 nM
